Entries after “also recorded” stand apart in the source; their conditions may differ.
Assays:
[1] = tested on: macrophage cell line J774; experiment: Bioactivity: J774 macrophages on matrigel attached with TNFα-CSG; format: cell-based; details: 0.1 mmol on matrigel, 1 to 16 hrs
Experimental: Bioactivity of TNFα-CSG was assessed in vitro, specifically by incubating macrophage cell, line, J774, on matrigel attached with TNFα-CSG (0.1 mmol).

[2] = tested on: RIP-Tag insulinoma and hepatocellular carcinoma; experiment: In vivo binding specificity of fluorescein-labelled TNFα-CSG and native TNFα; design: species or system mice; details: 130 μg i.v., 30 min circulation
Experimental: Binding specificity of TNFα-CSG to tumours in vivo was assessed by detecting fluorescein-labelled TNFα-CSG and native unconjugated TNFα following 130 μg intravenous injection (30 min circulation).

[3] = Toxicity of repeated intravenous injections; format: in vivo; details: 0.5-10 μg daily i.v., total of 8 injections
Experimental: To determine potential toxicity effects of TNFα-CSG, the inventors then administered TNFα-CSG intravenously to mice (n=6) at a dose ranging from 0.5-10 μg daily, to a total of 8 injections. TNFα-CSG is non-toxic at these doses and frequency.

RIP-Tag insulinoma [4] = experiment: Immune cell infiltration in RIP-Tag insulinoma (immunofluorescence); format: in vivo, mice; details: 2 and 5 μg daily i.v. for 5 days, vs control groups
Experimental: Mice bearing RIP-Tag insulinoma at 25 weeks of age were treated with 2 and 5 μg TNF60 -CSG (in 100 μL) by daily intravenous injection for 5 days. FIG. 6 presents microscopic evaluation of CD4+ and CD8+ T cells and circulatory CD11b macrophages detected by immunofluorescence staining of tissue cross sections.

hepatocellular carcinoma = experiment: Immune cell infiltration in hepatocellular carcinoma (FACS); format: in vivo, mice; details: 2 μg daily i.v. for 5 days, healthy livers
Experimental: Mice bearing hepatocellular carcinoma at 10 weeks of age were treated with 2 μg TNFα-CSG or control CSG peptide (in 100 μL) by daily intravenous injection for 5 days. The experiment was also conducted on mice with normal, healthy livers, FACS quantification of CD4+ and CD8+ T cells and infiltrating macrophages (CD11b+/CD68+) in whole tumours is shown in FIG. 7. Quantitative analysis of these tumours show at least 3 fold increase in immune cell infiltration compared to CSG-treated tumours (P<0.05).

RIP-Tag insulinoma [5] = experiment: Tumour ECM content (collagen-1, laminin, nidogen-1); format: in vivo, mice; details: 2 μg or 5 μg i.v. daily for five days
Experimental: As evidenced by analysis of the ECM components collagen-1, laminin and nidogen-1, intravenous injection of TNFα-CSG at a dose of 2 μg or 5 μg daily for five days to mice having a RIP-Tag insulinoma, specifically reduces tumour ECM content (FIG. 9).

[6] = tested on: RIP-Tag insulinoma and 4T1 breast carcinoma; experiment: Tumour vessel perfusion (CD31:lectin ratio); format: in vivo, mice; details: 2 μg/day × 5
Experimental: The inventors then evaluated vessel perfusion in RIP-Tag insulinoma and 4T1. breast carcinoma from mice treated with TNFα-CSG (2 μg/day×5), as measured by CD31:lectin ratio following 10 min intravenous circulation of tomato green lectin.

4T1 tumour [7] = experiment: Tumour uptake of Evans blue dye; format: in vivo, mice; details: 2 μg i.v. for five days; Evans blue 30 min
Experimental: As a result of the reduced tumour ECM content and increased tumour vessel perfusion (Example 4), the inventors then evaluated the ability of tumours treated with TNFα-CSG to take op various reagents. Mice bearing 4T1 tumour were treated with 2 μg TNFα-CSG or CSG control peptide by intravenous injection for five days. Following this, mice were intravenously injected with 100 μL, of 0.9% Evans blue solution and allowed to circulate for 30 min. Tumours were then harvested and photographed.

insulinoma = experiment: Tumour uptake of iron oxide micelles (MRI); format: in vivo, mice; details: 2 μg dose daily for five days; 6 hr circulation
Experimental: Reduced tumour ECM and stiffness, as well as improved perfusion was also shown to result in enhanced tumour uptake of a nano-imaging contrast agent. Specifically, insulinoma-bearing mice were treated with 2-10 μg TNFα-CSG or CSG control peptide by intravenous infection daily for five days. Following this, mice were intravenously injected with 100 μL of 1 mM iron oxide (IO) micelles (30 nm diameter). Tumours were harvested after 6 hr circulation and imaged by MRI and microscopic analysts of tissues mounted in 2% agarose. […] This accumulation was confirmed by immunostaining analysis of tissue cross sections using anti-FITC antibody.

4T1 breast carcinoma = experiment: Tumour uptake of doxorubicin-micelles; format: in vivo, mice; details: 2 μg i.v. daily for 5 days, then 100 μL of 1 mM doxorubicin-micelles
Experimental: 4T1 breast carcinoma-bearing mice were treated with 2 μg TNFα-CSG or CSG control, peptide by intravenous injection, daily for 5 days. Mice were then injected with 100 μL of 1 mM doxorubicin-micelles (200 nm in size) and tissues including tumours, spleen and liver were collected for analysis.

4T1 tumour [8] = experiment: Anti-tumorigenic effect on 4T1 tumour growth; format: in vivo, mice; details: 2 μg, 6 injections in 2 weeks
Experimental: The inventors have also discovered that TNFα-CSG has anti-tumorigenic effects, as evidenced by reduced tumour growth and reduced cell proliferation. 4T1 tumour-bearing mice were treated with 2 μg TNFα-CSG or control CSG peptide 4 days after inoculation with 5×10^5 4T1 cells. Each mouse received a total of 6 injections in 2 weeks.

4T1 tumours = experiment: Tumour clearance, whole microscopic images of 4T1 tumours; format: in vivo, mice; details: 10 μg for five days
advanced insulinoma = experiment: Survival of mice bearing advanced insulinoma; format: in vivo; details: 5 μg daily i.v. for five days at 24 weeks of age
Experimental: Survival studies were conducted using mice bearing advanced insulinoma, at 24 weeks of age, treated with 5 μg TNFα-CSG or 0.8 μg CSG daily for five days by intravenous injection.

atherosclerotic plaque = experiment: TNFα-CSG therapy of aging ApoE null mice; details: for ALT / AST / Troponin: plasma, median (interquartile range)
Experimental: Aging ApoE null mice were treated with 10 μg TNFα-CSG or 0.8 μg CSG peptide daily for five days by intravenous injection. Tissue, including aorta and plasma, were collected from euthanised animals at 70 weeks of age. Plasma samples were collected after 1 and 10 weeks of therapy and assessed for markers of (i) circulating cholesterol (total cholesterol, HDL and LDL), (ii) cardiac necrosis (troponin) and (iii) liver damage (alanine transaminase, ALT and aspartate transaminase, AST).

With “TNFα-CSG: Mature murine TNFα (SEQ ID NO:6) with C-terminal conjugated peptide CSGRRSSKC connected via a GGG linker; recombinant fusion protein” the “protease secretion by J774 cells” value [1] was “secretion of MMP-2 and MMP-9”, the “binding to tumour tissue in vivo” value [2] was “specifically targeted” and the “binding to normal tissues in vivo” value ([2]; normal tissues) was “limited binding to normal pancreas, liver, heart, and kidney”. For the same substance, the toxicity [3] was “non-toxic”, the “immune cell infiltration (CD4+, CD8+ T cells, CD11b macrophages)” value (RIP-Tag insulinoma [4]) was “significant increase in immune cell infiltration” and the “effect on immune cell infiltration in normal liver” value (hepatocellular carcinoma) was “no effect on normal liver”. For the same substance, the “ECM content in normal pancreas” value (RIP-Tag insulinoma [5]) was “remained unaltered”, the “tumour ECM content (collagen-1, laminin, nidogen 1, excluding basement membrane)” value (RIP-Tag insulinoma [5]) was “significant reduction in ECM content” and the “vessel width vs control treated tumours” value [6] was “significantly wider”. The “CD31:lectin ratio” value ([6]; 10 min i.v. circulation of lectin) was about 1, the “tumour permeability to Evans blue dye vs control-treated tumours” value (4T1 tumour [7]) was “more permeable to Evans blue dye” and the “accumulation of FITC-labelled IO micelles in tumours (MRI T2* and T2 relaxation)” value (insulinoma) was “increased accumulation of FITC-labelled IO micelles”. For the same substance, the “loss of signal (T2 relaxation time)” value (insulinoma) was “significantly lower”, the “doxorubicin (autofluorescence) in treated tumours” value (4T1 breast carcinoma) was “strong traces of doxorubicin” and the “ratio of cytotoxic T cells to immune suppressor T cells” value (4T1 tumour [8]) was “significantly higher ratio of cytotoxic T cells to immune suppressor T cells”. For the same substance, the “tumour cell proliferation (Ki67+)” value (4T1 tumour [8]) was “significant reduction in tumour cell proliferation”, the “tumour size and weight” value (4T1 tumour [8]; vs control CSG peptide) was “significantly reduced” and the “tumour clearance (hypoxia marker staining)” value (4T1 tumours) was “large areas at the centre of the tumour devoid of tumour cells”. For the same substance, the “survival compared to CSG-treated mice” value (advanced insulinoma) was “significantly enhanced”, the “plaque burden (plaque positive area)” value (atherosclerotic plaque; 10 μg daily i.v. for five days) was “significantly reduced plaque burden” and the “circulating HDL levels” value (atherosclerotic plaque; 10 weeks after administration) was “increase in circulating HDL levels; also recorded: significantly increased”. The “circulating LDL” value (atherosclerotic plaque; 10 weeks after administration) was “reduction in LDL”, the “plasma LDL:HDL ratio” value (atherosclerotic plaque; 10 weeks after therapy) was “reduced” and the “plasma LDL:HDL ratio” value (atherosclerotic plaque; after 1 week of therapy) was “increased”. The “activated endothelia (CD31+, endoglin+) in plaque intima” value (atherosclerotic plaque; mouse, in vivo) was “increased the expression of activate endothelia”, the “macrophage content (CD11b+) in plaque” value (atherosclerotic plaque; mouse, in vivo) was “reduced macrophage content” and the “ECM in plaque intima (collagen I, collagen IV, laminin)” value (atherosclerotic plaque; mouse, in vivo, iv) was “degraded ECM in plaque intima”. For the same substance, the “cardiac or liver toxicity” value (atherosclerotic plaque; plasma troponin, ALT, AST) was “did not elevate cardiac or liver toxicity”, the ALT (atherosclerotic plaque; 1 week) was 33.3 (15.4-115.5) U/L and the AST (atherosclerotic plaque; 1 week) was 106 (74.0-195.5) U/L. The Troponin (atherosclerotic plaque; 1 week) was 15.3 (10.7-30.2) ng/L, the ALT (atherosclerotic plaque; 10 weeks) was 26.0 (18.5-79.8) U/L and the AST (atherosclerotic plaque; 10 weeks) was 81.5 (52.3-184.3) U/L. The Troponin (atherosclerotic plaque; 10 weeks) was 15.1 (5.7-24.0) ng/L.

— patent publication US20190022239A1, “NOVEL BIOMOLECULE CONJUGATES AND USES THEREFOR” (The University of Western Australia, priority 2016, published 2019)
